# Assay results reported in patent publication US20250333371A1, “COMPOUNDS” (PSYLO PTY LTD, priority 2022, published 2025).
# Molecular target: T1, 5-HT2B (Homo sapiens, UniProt P41595)
# T1 construct: host or cells: CHO-K1
# Test: FLIPR Ca2+ flux functional assay, 5-HT2B receptor (stably transfected CHO-K1)
# Type: cell-based
# Description: Activity at 5-HT2A, 5-HT2B and 5-HT2C receptors was determined using a FLIPR Ca^2+ flux assay at WuXi AppTec Co. Ltd. (Hong Kong) Discovery Biology Unit according to their standard protocols. Briefly, stably transfected cells expressing the receptor of interest (HEK293 for 5-HT2A and 5-HT2C; CHO-K1 for 5-HT2B) were grown and plated in a 384 well plate and incubated at 37° C. and 5% CO2 overnight. A 250 mM stock solution of probenecid in FLIPR calcium assay buffer (10 mL) was freshly prepared and combined with a fluorescent dye (Fluo-4 Direct) to give a final assay concentration of 2.5 mM. Reference compounds were 4-fold serially diluted and the screening compounds were 3-fold serially diluted in 100% DMSO for 10 points using Agilent Bravo, and 750 nL was added to a 384 well compound plate using Echo along with 30 μL assay buffer. The fluorescent dye was then added to the assay plate along with assay buffer to a final volume of 40 μL. The cell plate was incubated for 50 min at 37° C. and 5% CO2 and placed into the FLIPR Tetra along with the compound plate. 10 μL of references and compounds were then transferred from the compound plate into the cell plate and the fluorescent signal was read.
# T1 sequence (P41595 whole entry): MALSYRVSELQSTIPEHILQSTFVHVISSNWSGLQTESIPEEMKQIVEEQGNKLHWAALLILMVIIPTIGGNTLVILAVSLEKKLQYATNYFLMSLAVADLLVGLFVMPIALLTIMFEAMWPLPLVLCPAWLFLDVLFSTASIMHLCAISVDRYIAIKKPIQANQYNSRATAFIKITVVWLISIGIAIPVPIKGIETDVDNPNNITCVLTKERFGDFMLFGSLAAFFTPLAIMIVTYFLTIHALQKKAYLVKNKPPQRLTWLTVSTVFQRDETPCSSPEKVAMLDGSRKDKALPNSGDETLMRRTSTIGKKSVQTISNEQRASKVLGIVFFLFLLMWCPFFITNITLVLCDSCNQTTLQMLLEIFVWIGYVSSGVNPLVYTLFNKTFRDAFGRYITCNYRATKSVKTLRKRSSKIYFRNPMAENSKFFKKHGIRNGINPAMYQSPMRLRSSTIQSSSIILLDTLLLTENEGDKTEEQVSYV
compound,measurement,setting,value
"COc1ccc2cccc(CCN(C)C(C)C)c2c1 [Example I-7, N-(2-(7-methoxynaphthalen-1-yl)ethyl)-N-methylpropan-2-amine]",EC50,,> 10 µM
same,Emax,"agonist activity, Ca2+ flux, CHO-K1",36%
